How the values were obtained:
3T3 cells = assay: MTT cell proliferation assay; format: cell-based; settings: Mus musculus, NIH3T3, approximately 64-72 hours
How it was run: (§1)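 Cells seeded at 5,000-10,000 per well attached overnight, then received eight compound concentrations from 1 nM to 30 μM. Viability was measured by MTT (about 4 h) with OD read at 490 nm. Percent inhibition versus negative control, mostly from duplicates, was reported as mean±SE.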

MM1S cells = assay: MTT cell proliferation assay; format: cell-based; settings: Homo sapiens, MM1.S, approximately 64-72 hours
How it was run: as §1

Z138 cells = assay: MTT cell proliferation assay; format: cell-based; settings: Homo sapiens, Z-138, approximately 64-72 hours
How it was run: as §1

CRM1 = molecular target: T1, CRM1 (Homo sapiens, UniProt O14980); assay: Washout assay in U2OS Rev-GFP cells; format: cell-based; settings: 24 hour washout versus no washout
T1 construct: endogenous in cells; host or cells: U2OS cells stably expressing Rev-GFP
Procedure: After 4 hours, one of the plates was fixed with PFA (no washout, condition A). […] A second plate was fixed with PFA after a 4 hour washout (4 hr washout, condition B) and a third plate was fixed with PFA after a 24 hour washout (24 h washout, condition C). Cells were counterstained with the nuclear dye DAPI.

mutant CRM1-Cys528Ser = molecular target: T2, mutant CRM1-Cys528Ser (Homo sapiens, UniProt O14980, C528S); assay: Cys 528 mutation assay, Rev-GFP localization; format: cell-based; settings: 30 μM, U2OS Rev-GFP cells
T2 construct: expressed in transfected cells; host or cells: U2OS (osteosarcoma) cells stably expressing Rev-GFP
Procedure: U2OS (osteosarcoma) cells stably expressing GFP-tagged HIV-Rev fused to the cAMP-dependent protein kinase inhibitor (PM) nuclear export signal (Rev-GFP) were transiently transfected with constructs expressing wild-type CRM1 or mutant CRM1-Cys528Ser for 36 hours. The transient transfection efficiency in the experiment was estimated to be 50%.

[1] = test system: XPO1 cargo proteins: p53, IκB, Foxo1A, PP2A, p21 and p27; assay: XPO1 cargo localization assay in U2OS cells (immunofluorescence); format: cell-based; settings: 500 nM, 4 to 24 hours
Procedure: The fixed cells were analyzed by immunofluorescence (IF) for the nuclear localization of the following XPO1 cargo proteins: p53, IκB, Foxo1A, PP2A, p21 and p27. Nuclei were stained with DAPI. Images were taken at 20× magnification.

MDA-MB-468 xenograft = MDA-MB-468 xenograft model; format: in vivo, mouse; settings: 10 mg/kg PO once daily, CB-17 SCID mice, compared to vehicle
Procedure: MDA-MB-468 (ATCC #HTB-102) breast adenocarcinoma cells were obtained from ATCC. These cells were grown in high glucose DMEM medium supplemented with 10% fetal bovine serum, 1% penicillin and streptomycin, and 2 mM L-Glutamine. Cells were sub-cultured by dilution at a ratio of 1:4. MDA-MB-468 cells were harvested by trypsinization and counted using a hemocytometer. Cells were resuspended in PBS at a concentration of 4×10^8 cells per mL. Cells were placed on ice and mixed with an equal volume of Matrigel (BD Biosciences CB-40234). Twenty-two (22) CB-17 SCID mice were inoculated sub-cutaneously in the left flank with 4×10^7 MDA-MB-468 cells. Treatment was initiated when the tumors reached a mean volume of ˜100 mm^3. […] Animals' weights and condition were recorded daily, and tumors were measured on Mondays, Wednesdays, and Fridays.

COLO 205 xenograft = assay: COLO 205 colorectal carcinoma xenograft model; format: in vivo, mouse
Procedure: COLO 205 (CCL-222) colorectal cancer cells were obtained from ATCC. These cells were grown in RPMI-1640 medium supplemented with 10% fetal bovine serum, 1% penicillin and streptomycin. Cells were sub-cultured by transferring floating cells to a new flask and trypsinizing adherent cells before sub-culturing at a ratio of 1:4. COLO 205 cells were harvested by centrifugation and counted using a hemocytometer. Cells were resuspended in PBS at a concentration of 5×10^7 cells per mL. Cells were placed on ice, and then mixed with an equal volume of Matrigel™ (BD Biosciences CB-40234). This mixture was kept on ice and injected into the left flank of mice in a volume of 0.2 mL, equivalent to 5×10^6 cells per mouse. Thirty-two (32) SCID mice were inoculated subcutaneously in the left flank with 5×10^6 COLO 205 cells. Treatment was initiated when the tumors reached a mean volume of 103.7 mm^3 (standard deviation±30 mm^3, range 17-183 mm^3). Mice were allocated to four (4) groups of eight (8) mice such that mean tumor volume in each group was within the range of 95 to 104 mm^3. […] With the exception of 5-FU (which was given IP on days 1 and 3), all compounds were given by oral gavage. […] Animal weights and conditions were recorded daily, and tumors were measured on Mondays, Wednesdays and Fridays.

U251MG spheroids = assay: Glioblastoma spheroid assay; format: cell-based; settings: 1 μM, U251MG spheroids in Matrigel, compared with control
Procedure: (§2) Cells (U87MG and U251MG) were detached and re-suspended at 1×10^5 cells/mL. 5,000 cells were loaded into a hanging drop plate (3D Biomatrix Cat. No.: HDP1096) and incubated for 5 days (37° C.; 5% CO2) to form spheroids. 300 μL of Matrix Gel (Corning Matrigel Cat #354234; Lot #3330622) were plated per well in a 24-well plate and incubated for 30 minutes. Spheroids were removed from the hanging drop plate and seeded into the […]™ (1 spheroid per well). Spheroids were incubated for 15 minutes and then 460 μL media was added. […] The plates were analyzed at several time points using 40× and 20× phase microscopes, and photos of the spheroids were taken.

U87MG spheroids = assay: Glioblastoma spheroid assay; format: cell-based; settings: 1 μM, U87MG spheroids in Matrigel, compared with control
Procedure: as §2

T2 sequence (O14980 whole entry C528S): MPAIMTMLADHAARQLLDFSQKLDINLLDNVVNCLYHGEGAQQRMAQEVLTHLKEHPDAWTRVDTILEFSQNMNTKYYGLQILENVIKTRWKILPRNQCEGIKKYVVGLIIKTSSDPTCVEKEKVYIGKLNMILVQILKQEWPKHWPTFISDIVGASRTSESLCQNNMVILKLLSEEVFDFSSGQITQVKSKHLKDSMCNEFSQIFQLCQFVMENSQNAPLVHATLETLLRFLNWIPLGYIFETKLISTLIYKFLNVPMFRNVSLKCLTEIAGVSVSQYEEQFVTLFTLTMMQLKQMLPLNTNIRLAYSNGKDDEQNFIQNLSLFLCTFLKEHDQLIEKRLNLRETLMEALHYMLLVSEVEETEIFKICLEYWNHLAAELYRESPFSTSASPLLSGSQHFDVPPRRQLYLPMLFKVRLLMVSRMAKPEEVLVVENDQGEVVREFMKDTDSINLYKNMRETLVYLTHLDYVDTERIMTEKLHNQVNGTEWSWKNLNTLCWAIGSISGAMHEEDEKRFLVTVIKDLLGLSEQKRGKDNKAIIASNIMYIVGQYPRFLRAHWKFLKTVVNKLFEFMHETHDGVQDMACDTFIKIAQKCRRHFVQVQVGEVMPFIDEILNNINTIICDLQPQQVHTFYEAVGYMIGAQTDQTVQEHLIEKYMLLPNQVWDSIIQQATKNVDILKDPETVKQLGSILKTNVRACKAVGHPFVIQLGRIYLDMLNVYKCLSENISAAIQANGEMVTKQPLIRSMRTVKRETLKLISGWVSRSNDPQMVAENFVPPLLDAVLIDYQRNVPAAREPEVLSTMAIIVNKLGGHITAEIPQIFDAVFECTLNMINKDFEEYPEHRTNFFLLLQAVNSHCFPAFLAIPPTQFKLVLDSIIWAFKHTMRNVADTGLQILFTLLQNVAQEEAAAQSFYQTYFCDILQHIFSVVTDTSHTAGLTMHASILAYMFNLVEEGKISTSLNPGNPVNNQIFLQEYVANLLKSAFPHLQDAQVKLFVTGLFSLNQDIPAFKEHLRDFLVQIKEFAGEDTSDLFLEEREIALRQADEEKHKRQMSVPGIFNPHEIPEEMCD
T1 sequence (O14980 whole entry): as the sequence (O14980 whole entry C528S) above, with S528C counted along it

For `NC(=O)/C(=C/n1cnc(-c2cc(C(F)(F)F)cc(C(F)(F)F)c2)n1)c1cncnc1` [Compound 124, (E)-3-(3-(3,5-bis(trifluoromethyl)phenyl)-1H-1,2,4-triazol-1-yl)-2-(pyrimidin-5-yl)acrylamide], the IC50 (3T3 cells) was 5000 to 30000 nM, the IC50 (MM1S cells) was < 100 nM and the IC50 (Z138 cells) was < 100 nM. The “decrease in effectiveness after a 24 hour washout” value (CRM1) was 6 fold, the “Rev-GFP localization, mutant CRM1-Cys528Ser co-expressed” value (mutant CRM1-Cys528Ser) was “did not induce nuclear localization of Rev-GFP” and the “nuclear localization of XPO1 cargo proteins” value [1] was “increased or complete nuclear localization of XPO1 cargoes”. The mean tumor volume (MDA-MB-468 xenograft) was “mean tumor volume was reduced”, the mean tumor volume (COLO 205 xenograft; 5 or 15 mg/kg PO daily, SCID mice, compared to vehicle) was “mean tumor volume was reduced” and the “mean tumor volume compared with standard of care” value (COLO 205 xenograft; particularly 15 mg/kg PO daily, versus 5-FU) was “compared favorably”. For the same compound, the spheroid cell growth (U251MG spheroids) was “shrinking of the spheroid with complete elimination of any cell growth out of the sphere” and the spheroid cell growth (U87MG spheroids) was “significant reduction in cell growth”.

— patent US11945794B2, “Nuclear transport modulators and uses thereof” (Karyopharm Therapeutics Inc., priority 2013, dated 2024)
